Results on 78 molecules are retold here after the METLIN SMRT retention time set (Domingo-Almenara et al. 2019).

Structures are written as SMILES.

The nature of this data set: gradient 5% acetonitrile 3 min, to 50% in 2 min, to 85% in 15 min, held 3 min, 100 µL/min. Conditions: column: Zorbax Extend-C18 2.1 x 50 mm; eluents: water / acetonitrile, 0.1% formic acid. In outline:
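The mobile phases were water and acetonitrile, each with 0.1% formic acid, pumped at 100 μL/min through a Zorbax Extend-C18 column (2.1 × 50 mm, 1.8 μm). Pure standards were injected as mixtures of ~100 molecules and detected by a quadrupole time-of-flight mass spectrometer in positive and negative ionization mode. Retention time came from computationally picked adduct peaks, each inspected by hand.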
In turn, `CCn1cc(C2=CCN(C(=O)Nc3ccc(OC)c(F)c3)CC2)c2cccnc21` registered an RP-LC retention time of 885 s. With `Cc1cc2oc(C(=O)NCCc3nc(-c4ccccc4)no3)c(C)c2cc1C` the figure was 1210 s. With `Cc1ccc(NS(=O)(=O)c2cc(-c3nc(C(C)(C)C)cs3)cs2)c(C)c1` the figure was 1310 s; with `CC(C)c1cnc2c(c1SCc1cccnc1)c(=O)n(C)c(=O)n2C`, 691 s; with `Cc1noc2nc(CCC(=O)NCc3ccccc3F)nc(N3CCCC3)c12`, 767 s. With `CC(=O)c1ccc(NC(=O)c2cc(-c3cccnc3)nc3ccccc23)cc1` the figure was 732 s; with `COc1ccc2c(c1)C1(CCN(C(=O)Nc3ccc(OC)c(OC)c3)C1)C(=O)N2` (stereo not drawn), 671 s. `COC(=O)c1ccccc1NC(=O)Cc1csc(Nc2ccccn2)n1`: the RP-LC retention time is 703 s. With `CCN1C(=O)COc2ccc(-c3noc(-c4cccc(Cl)c4)n3)cc21` the figure was 1250 s; with `O=C(CCN1C(=O)c2ccccc2S1(=O)=O)Nc1nc(-c2ccccc2)cs1`, 941 s.

With `COc1ccc(CC(=O)Nc2ccc(-c3cn4ccsc4n3)cc2)cc1OC`, the RP-LC retention time is 604 s. In the case of `CCCN(Cc1ccc(OCC)cc1)Cc1cc(=O)n2cc(Cl)ccc2n1`, the RP-LC retention time stood at 686 s. With `NS(=O)(=O)c1ccc(NC(=O)Cc2cn(Cc3ccc(F)cc3)c3ccccc23)cc1` the figure was 824 s; with `Cc1nnc(-c2ccc(S(=O)(=O)N3CCOCC3)o2)o1`, 664 s. In the case of `CCOC(=O)c1[nH]c(C)c(CCC(=O)N2CCC(C(=O)NCCN3CCN(CC)CC3)CC2)c1C` it was 577 s.

Consider `CCOc1ccc(-c2noc(Cn3c(=O)n(-c4ccccc4C)c(=O)c4sccc43)n2)cc1OC`, for which the RP-LC retention time is 960 s. With `CN(CCc1ccncc1)C(=O)C1CCN(c2cnn(Cc3ccccc3)c(=O)c2)CC1` the figure was 612 s; with `OC(COc1cccc2ccccc12)CN1CCN(c2ccc(Cl)cc2)CC1` (stereo not drawn), 856 s.

Turning to `O=C(CSc1ccccc1)N1CCc2nc(-c3ccc(F)cc3)ncc2C1`, the RP-LC retention time stood at 1000 s.

Molecule `COC(=O)c1c(NC2CCCCC2)c2cccc(Cl)c2[nH]c1=O` displayed an RP-LC retention time of 876 s.

Take `CCN1c2ccccc2C(=O)NC12CCN(C(=O)c1ccccc1OC)CC2`: the RP-LC retention time stood at 732 s.

`CCC(C)OC(=O)C1=C(C)NC(=O)NC1c1ccc(OC)c(O)c1` (stereo not drawn) had an RP-LC retention time of 693 s. With `O=C(CN1C(=O)C(C(=O)N2CCCC2)Sc2ccccc21)NCCc1ccccc1` (stereo not drawn) the figure was 898 s; with `Cc1nc(C2CCOCC2)n(C2CCN(S(=O)(=O)c3ccccc3Cl)C2)n1` (stereo not drawn), 740 s; with `CCCNC(=O)C1CCN(c2ccc(SCC(=O)Nc3ccc4c(c3)CCC4)nn2)CC1`, 707 s. In the case of `CSc1cccc(Nc2c(C(=O)N3CCOCC3)cnc3nc(C)ccc23)c1` it was 606 s; in that of `CCOC(=O)c1csc(NC(=O)c2csc3nc(-c4ccc(F)cc4)cn23)n1`, 913 s. `CN(C)S(=O)(=O)c1ccc2c(c1)N(CC(=O)N1CCc3ccccc31)C(=O)C1CCCCN21` (stereo not drawn) registered an RP-LC retention time of 960 s. With `CNC(C)Cc1ccccc1OC` (stereo not drawn) the figure was 646 s; with `COc1cccc(NC(=O)Cn2c(N3CCOCC3)nc(C)cc2=O)c1`, 652 s; with `CC(C)c1noc(-c2cc(=O)n(CC(=O)Nc3cc(F)ccc3F)c3ccccc23)n1`, 1040 s. In the case of `Cc1csc(NC(=O)CN2C(=O)C3CCCCN3c3ccc(S(=O)(=O)N(C)C)cc32)n1` (stereo not drawn) it was 853 s; in that of `COC(=O)c1ccccc1NC(=O)c1noc2c1CCC2`, 1110 s; in that of `Cc1cc(OCC(=O)N[C@H](C(=O)O)C(C)C)c2c3c(c(=O)oc2c1)CCC3`, 788 s. Turning to `CSc1nnc(Cn2c(=O)sc3ccccc32)n1-c1cccc(C(F)(F)F)c1`, the RP-LC retention time was 824 s. `COc1ccc(N2CCN(C(=O)c3cn4ccccc4n3)CC2)cc1` gave an RP-LC retention time of 603 s.

`Cc1cn2c(S(=O)(=O)N3CCC4(CC3)OCCO4)c(C(C)C)nc2s1` showed an RP-LC retention time of 891 s.

On to `COCCN(Cc1ccc(Cl)cc1)Cc1cc(=O)n2ccc(C)cc2n1`, for which the RP-LC retention time worked out at 657 s. In the case of `Cc1cc(C)cc(NC(=O)Nc2nccn(-c3cccc(Cl)c3)c2=O)c1` it was 1110 s.

`COc1ccccc1CNC(=O)Cn1ccc2ccc(-c3nnc(C)o3)cc21`: the RP-LC retention time was 763 s. In the case of `COc1ccc(S(=O)(=O)N2CCC(Cc3nncn3C)CC2)cc1` it was 657 s.

Take `CCOc1ccc(CNC(=O)CC2CCN(C(=O)c3[nH]c(C)c(C(=O)OC)c3C)CC2)cc1`: the RP-LC retention time was 750 s.

For `O=C(Cn1ncc2c(N3CCN(c4ccccn4)CC3)ncnc21)Nc1cccc(Cl)c1`, the RP-LC retention time was 638 s. In the case of `CCNC(=O)N1CCc2c([nH]c3ccc(Cl)cc23)C12C(=O)N(C)c1ccccc12` (stereo not drawn) it was 822 s. `O=C(NCc1ccccc1F)c1cc(N2CCCC2)n2nccc2n1` displayed an RP-LC retention time of 994 s. With `CCN1C(=O)CCc2cc(NS(=O)(=O)c3ccc(Cl)c(Cl)c3)ccc21` the figure was 904 s. In the case of `CSc1cccc(NC(=O)C2CCN(c3cnc4nccnc4c3)CC2)c1` it was 752 s. In the case of `COc1ccc(Cc2noc(Cc3nnc(-c4ccc(Cl)cc4)o3)n2)cc1` it was 1010 s. Take `O=C(NC1CCCCC1)c1cc2c(s1)CCN(C(=O)c1ccc(F)cc1)C2`: the RP-LC retention time is 893 s. In the case of `CCn1ccc2oc(C)c(C(=O)NCc3ccccc3Br)c2c1=O` it was 1020 s. With `COc1ccc2c(CCNC(=O)Nc3ccc(Cl)cc3)c[nH]c2c1` the figure was 711 s; with `O=C(c1ccc(CS(=O)c2ccccc2Cl)o1)N1CCN(c2ccccn2)CC1` (stereo not drawn), 604 s; with `Cc1cccc(N2CCN([C@H]3CS(=O)(=O)C[C@@H]3S(=O)(=O)c3ccccc3)CC2)c1C`, 1060 s. In the case of `Cc1ccnc(Nc2nc(-c3ccc(Cl)cc3)cs2)c1` it was 947 s.

Consider `Cc1ccn2cc(-c3ccc(NC(=O)c4cccc(F)c4)cc3)nc2n1`, for which the RP-LC retention time was 647 s.

The molecule `CN1CCN(CCCNc2nnc(-c3nc(-c4ccc(F)cc4)no3)c3ccccc23)CC1` returned an RP-LC retention time of 575 s.

The molecule `CCCC[C@@H](C)/C=C(C)/C=C(\C)C(=O)NC1=C[C@@](O)(/C=C/C=C/C=C/C(=O)NC2=C(O)CCC2=O)[C@@H]2OC2C1=O` (stereo partly drawn) returned an RP-LC retention time of 1250 s.

`Cc1cc2c(cc1S(=O)(=O)N1CCCC1C(=O)Nc1ccc(F)c(Cl)c1)OC(C)C(=O)N2` (stereo not drawn) came in with an RP-LC retention time of 866 s.

`Cc1cccc(NC(=O)N2CCCC(C)(C(=O)NCc3ccccc3C)C2)c1` (stereo not drawn) gave an RP-LC retention time of 959 s.

Molecule `CCOc1ccc2nc(NC(=O)C3CCN(C(=O)C4Sc5ccccc5NC4=O)CC3)sc2c1` (stereo not drawn) registered an RP-LC retention time of 826 s.

Molecule `Cc1nnc(N2CCCC(C(=O)NC3CCCCC3)C2)c2nn(-c3ccc(Cl)cc3)c(C)c12` (stereo not drawn) displayed an RP-LC retention time of 784 s.

In turn, `O=C(NCc1ccc(F)cc1F)c1ccc2c(c1)ncn2CCN1CCCC1` yielded an RP-LC retention time of 576 s. With `CCN1CCC(N(Cc2cccs2)C(=O)Nc2cccc(Cl)c2)CC1` the figure was 679 s. Turning to `CN(C)c1ccc(CNC(=O)Cn2nc(C(=O)N3CCCC3)c3ccccc32)cc1`, the RP-LC retention time was 612 s. In the case of `O=C(Cn1nc(N2CCSCC2)c2ccccc2c1=O)Nc1ccc(Br)cc1`, the RP-LC retention time came out at 1000 s. In the case of `CCc1ccccc1NC(=O)N1CCCC(C)(C(=O)NCc2ccccc2C)C1` (stereo not drawn) it was 1020 s; in that of `O=C(NC1CC1)C1CCN(Cc2cc3ccccc3n2Cc2cccc(Cl)c2)CC1`, 730 s; in that of `CCCn1c(=O)c(C)nc2cc(-c3noc(Cc4ccc(OC)cc4)n3)ccc21`, 1040 s. With `Cc1ccc(NC(=O)NCCC2CCN(S(=O)(=O)c3ccc(F)cc3)CC2)cc1` the figure was 925 s; with `COc1ccc(C2=NN(C(=O)c3ccccc3)C(c3cccc([N+](=O)[O-])c3)C2)cc1` (stereo not drawn), 1000 s. In the case of `CC(C)Cn1c(=O)c2cc(C(=O)NCc3cccs3)nn2c2ccccc21` it was 995 s; in that of `CCOC(=O)CCNC(=O)N1CCCCCCN(C)C(=O)CC1`, 627 s; in that of `Cc1ccccc1OCCCCn1c(CN2CCOCC2)nc2ccccc21`, 646 s.

On to `Cc1nccn1CC(=O)N1CCCn2cc(-c3cccc(C#N)c3)nc21`, for which the RP-LC retention time was found to be 626 s.

For `Cc1cc(C)n(Cc2nc(-c3ccc(NC(=O)c4sccc4C)cc3)oc2C)n1`, the RP-LC retention time is 951 s. With `CCn1c(=O)c(C)nc2cc(-c3noc(-c4ccc5c(c4)OCO5)n3)ccc21`, the RP-LC retention time stood at 1030 s. In the case of `CCN1C(=O)COc2ccc(-c3noc(-c4ccc5cc[nH]c5c4)n3)cc21` it was 1040 s; in that of `C/C=C(/C)C(=O)O[C@H]1CC(C)=CC(=O)[C@@]2(C)CC[C@@](O)(C(C)C)[C@H]12`, 725 s.
